Experiments:
[1] = Product Sustainability Scorecard: biodegradability score according to OECD Method 301/302; details: consolidated scorecard score, scale 0 to 100; score equals % biodegradation after 28-day OECD 301 test
Procedure: Biodegradation is one of the most important factors in assessing the environmental fate of chemicals. Biodegradation is the chemical dissolution of materials by bacteria, fungi, or other biological means. Biodegradability is evaluated according to the OECD Method 301/302 or equivalent. The tests of the OECD test series 301 (A-F) verify whether a substance is able for complete biodegradation under aerobic conditions. Different test methods are available for well or poorly soluble as well as volatile substances. The test usually takes 28 days. Test items must reach 60% biodegradation within 10 days to be classified as ‘ready biodegradable’.
Scheme 1: Scoring • STEP 1 Evaluation of the “Biodegradability Score” of the fragrance raw material based on the following scoring system
The score for biodegradability of the compound or the compounds is evaluated according to OECD Method 301/302 or equivalent.

[2] = Product Sustainability Scorecard: process safety with regard to human toxicity (Product Tox score from GHS H-phrases and supplier score); details: consolidated scorecard score, normalized scale 0 to 100 without dimension
From the text: (§1) Hazard statements form part of the ‘Globally Harmonized System of Classification and Labelling of Chemicals’ (GHS). They are intended to form a set of standardized phrases about the hazards of chemical substances and mixtures.
(§2) H200: Physical Hazards (=Toxicity and Eco Toxicity)
H300: Health Hazards (=Toxicity)
(§3) Scheme 4 and 5: Scoring • STEP 1 Evaluation of the ‘(Eco) Toxicity Material Score’ and ‘Critical By-Product Score’ of each reactant and its potential by-products based on the safety according to material properties:
(§4) • STEP 2 Evaluation of the ‘(Eco) Tox Supplier Score’ of each reactant based on process safety according to chemical handling (see appendix for further information):
(§5) • STEP 3 Calculation of the overall ‘(Eco) Tox Score’ of each reactant and the final product. […] If the supplier score is better, it outweighs the material score—following the assumption that a safe and controlled production environment is able to avert the risks of hazardous materials: MAX(‘(Eco) Tox Material Score’;‘(Eco) Tox Supplier Score’)=(Eco) Tox Score • (ii) Composed products: For composed products the (Eco) Tox Score combines the hazard and supplier information of the composed product itself (calculated as above) with the (Eco) Tox Score of its reactants. […]
The score for the overall human toxicity S(HTOX) is calculated according to the following equation (4): S(HTOX)=⅔*MAX(Ma;Pa)+⅓*(Mb*Cb)+ . . . […]

[3] = Product Sustainability Scorecard: process safety with regard to ecological toxicity (Product EcoTox score from GHS H-phrases and supplier score); details: consolidated scorecard score, normalized scale 0 to 100 without dimension
From the text: as §1, §2
H400: Environmental Hazards (=Eco Toxicity)
as §3, §4, §5

Biodegradability [1]: 100.00
Substance: 44_Dihydro Myrcenol [44DHM]
Product Tox [2]: 80.38 | Product EcoTox [3]: 87.73

— patent US10942159B2, “Product sustainability scorecard” (Symrise AG, priority 2016, dated 2021)
